{"source": "paper PMC6651024", "about": "“LIR Motif-Containing Hyperdisulfide β-Ginkgotide is Cytoprotective, Adaptogenic, and Scaffold-Ready” (Molecules, 2019)", "key": {"SH-SY5Y cells": {"test_system": "SH-SY5Y cells", "experiment": "LDH release cytotoxicity assay, SH-SY5Y", "assay_type": "cell-based, mouse", "conditions": "10 µM peptide, 48 h, 37 °C, LDH kit, 450 nm, triplicates", "description": "In addition, β-gB1 is non-toxic to Vero and BHK (baby hamster kidney) cell lines based on an MTT assay. […] LDH is a cytoplasmic enzyme which is rapidly released into the cell culture medium upon plasma membrane damage and is widely used as a marker for cytotoxicity. Thus, an LDH-release assay measures the level of plasma membrane damage to a cell population.\n(§1) Rat cardio-myoblast cells (H9c2) and […] neuron-like SH-SY5Y cells were purchased from ATCC and maintained in DMEM (Dulbecco’s modified eagle medium) medium supplemented with 10% fetal bovine serum (FBS), 10,000 U/mL of penicillin, and 10,000 µg/mL of streptomycin at 37 °C, 5% CO2.\nAn LDH release assay was performed using the CytoSelect™ LDH cytotoxicity assay kit (CBA-241, Cell Biolabs, Inc., San Diego, CA, USA). In brief, cells were cultured in DMEM with or without 10 µM of β-gB1 and S-alkylated β-gB1 (β-gB1Alk) for 48 h at 37 °C and 5% CO2. PBS was used for the vehicle control experiment. The culture medium was transferred and mixed with the LDH assay reagent in a ratio of 9:1. The reaction mixture was incubated at 37 °C for 2 h, and colorimetric quantification was performed using a 450 nm wavelength. The assay was performed in experimental triplicates, and statistical calculations and bar graphs were done using GraphPad Prism software (Version 6.01). […]"}, "[1]": {"experiment": "Enzymatic (proteolytic) stability against trypsin", "assay_type": "in vitro ADME", "conditions": "isolated enzyme trypsin; 800 U/mL trypsin, 0.1 M ammonium bicarbonate buffer pH 7.8, 37 °C, 6 h; 28 µg peptide in 100 µL; MALDI-TOF MS and C18 RP-HPLC; read-out: Peptide remaining intact after trypsin treatment", "method": "To assess the proteolytic stability of β-gB1, it was treated with trypsin or pepsin for 6 h. […] Similarly, the S-alkylated β-gB1 was degraded completely by pepsin within 30 min. […] This is in agreement with other plant CRPs that contain a compact structure, whose proteolytic stability was examined up to six hours treatment.\nThe folded β-gB1 (28 µg) was added to 100 μL of a 0.1 M ammonium bicarbonate buffer (pH 7.8) containing 800 U/mL of trypsin or 4 mg/mL of pepsin and incubated at 37 °C for 6 h. At each time-point (0, 1, 2, 4, and 6 h), 20 µL of the treated sample was aliquoted and quenched by adding 5 µL of 1 M hydrochloric acid or 0.8 μL of 1 M sodium hydroxide. The reduced β-gB1 was alkylated with iodoacetamide (S-alkylated β-gB1) and used as a control in this study. The reaction mixture was analyzed by MALDI-TOF MS and C18-reversed-phase HPLC to determine its stability."}, "[2]": {"experiment": "Thermal stability by far-UV circular dichroism spectroscopy", "assay_type": "physicochemical", "conditions": "heating up to 90 °C (20, 55, 90 °C); 42 µM peptide in sodium phosphate buffer pH 7.5; 190-260 nm", "method": "The secondary structure and thermal stability of the synthetic β-gB1 were assessed using circular dichroism (CD) spectroscopy. The far-UV CD data of β-gB1 were acquired at 20 °C, and secondary structure composition was predicted using the CDSSTR algorithm with a normalized root mean square deviation (RMSD) value of 0.021. The CD spectroscopy spectra agreed with the predicted secondary structure of folded β-gB1, which consists 28% strands, 16% turns, 1% helices, and 55% unordered structures (Figure 1A). The spectrum is in strike contrast with that of the S-reduced β-gB1, which is devoid of a secondary structure (Figure 1A).\nFar-UV CD spectra were recorded for the synthetic and folded β-ginkgotide β-gB1 (42 µM) in a sodium phosphate buffer (pH 7.5) on a Chirascan™ CD spectrometer (Applied Photophysics, Leatherhead, UK) equipped with a temperature controller. Spectra were acquired between 190 and 260 nm from 20 to 90 °C using a 1 mm path-length quartz cuvette, a 1 nm spectral bandwidth, and a 1 nm step size. CD spectroscopy data were analyzed for secondary structure content using CDSSTR [23]. CD data were expressed as mean residue ellipticity (in deg cm^2dmol^−1)."}, "caspase-3": {"test_system": "caspase-3", "experiment": "Western blot of caspase-3 in SH-SY5Y cells", "assay_type": "cell-based, human", "conditions": "triplicates", "method": "In contrast, the β-gB1-treated cells increased the expression of the LC3B-II isoform by 2.8-fold. […] In addition, the β-gB1-treated cells increased the BECN1 expression by 1.5-fold (Figure 2A,B).\nas §1\nA 25 µg equivalent quantity of each protein samples were resolved on a 10% and 15% SDS-PAGE gel accordingly and transferred onto a nitrocellulose membrane. Immunoblotting was performed using anti-protein antibodies against glyceraldehyde 3-phosphate dehydrogenase (GAPDH) (1:5000), LC3B (1:1500), Beclin-1 (1:1500), Caspase-3 (1:1500), and Caspase-9 (1:1500). Blots were developed with Clarity Max Western ECL blotting substrates. Protein bands were quantitated densitometrically using ImageJ software (ImageJ15.0b, Wayen Rasband, NIH, Bethesda, Maryland, USA), expressed relative to GAPDH, and normalized to the vehicle control cells. Statistical calculations and bar graphs were done using GraphPad Prism software (Version 6.01), and three individual experimental data sets were used for the calculation. Data are presented as means ± SD and compared by the Holm–Sidak multiple t-tests method. […]"}, "Candida tropicalis": {"test_system": "Candida tropicalis", "conditions": "concentrations up to 100 µM; cited from earlier work"}, "LC3B": {"test_system": "LC3B", "experiment": "Western blot of autophagy marker LC3B (LC3B-I, LC3B-II) in SH-SY5Y cells", "assay_type": "cell-based, human", "conditions": "triplicates", "method": "The LIR-containing proteins regulate autophagosome formation by interacting with the protein Atg8 (autophagy-related gene, Atg) family through their LIR sequences. […] The SH-SY5Y cells were cultured with or without β-gB1. The autophagy markers, Beclin-1 (BECN1), LC3B-I, and LC3B-II, were identified and quantified by western blot analysis. Beclin-1 plays an important role in regulating both autophagy and cell death, whereas LC3B is an important component of the autophagy pathway and the most widely used marker for autophagosomes. Two of the processed LC3B protein are LC3B-I and LC3B-II. LC3B-I is a truncated LC3B. In contrast, LC3B-II is a truncated and lipidated version of LC3B-I [28, 29]. Importantly, LC3B-II is centrally involved in the events of autophagosome membrane expansion and fusion.\nas §1\nA 25 µg equivalent quantity of each protein samples were resolved on a 10% and 15% SDS-PAGE gel accordingly and transferred onto a nitrocellulose membrane. Immunoblotting was performed using anti-protein antibodies against glyceraldehyde 3-phosphate dehydrogenase (GAPDH) (1:5000), LC3B (1:1500), Beclin-1 (1:1500), Caspase-3 (1:1500), and Caspase-9 (1:1500). Blots were developed with Clarity Max Western ECL blotting substrates. Protein bands were quantitated densitometrically using ImageJ software (ImageJ15.0b, Wayen Rasband, NIH, Bethesda, Maryland, USA), expressed relative to GAPDH, and normalized to the vehicle control cells. Statistical calculations and bar graphs were done using GraphPad Prism software (Version 6.01), and three individual experimental data sets were used for the calculation. Data are presented as means ± SD and compared by the Holm–Sidak multiple t-tests method. P-values pf less than 0.05 were considered significant."}, "Escherichia coli": {"test_system": "Escherichia coli", "conditions": "concentrations up to 100 µM; cited from earlier work"}}, "note": "Where a SMILES comes first, the peptide text is derived from it."}
{"smiles": "CC[C@H](C)[C@@H]1NC(=O)[C@@H]2CSSC[C@H](NC(=O)CNC(=O)[C@@H](NC(=O)[C@H](CCC(=O)O)NC(=O)[C@@H](N)Cc3ccc(O)cc3)[C@@H](C)O)C(=O)N[C@@H](CCCCN)C(=O)N[C@@H](CCCNC(=N)N)C(=O)N[C@H]3CSSC[C@@H](C(=O)O)NC(=O)[C@H](CSSC[C@H](NC3=O)C(=O)N[C@@H](Cc3ccc(O)cc3)C(=O)N[C@@H](CC(C)C)C(=O)N[C@@H](CC(=O)O)C(=O)N[C@@H](CCC(=O)O)C(=O)N[C@@H](Cc3ccc(O)cc3)C(=O)NCC(=O)N2)NC(=O)[C@H](CCCNC(=N)N)NC1=O", "note": "[β-gB1] (HELM PEPTIDE1{Y.E.T.G.C.K.R.C.C.Y.L.D.E.Y.G.C.I.R.C.C}$PEPTIDE1,PEPTIDE1,5:R3-16:R3|PEPTIDE1,PEPTIDE1,8:R3-20:R3|PEPTIDE1,PEPTIDE1,9:R3-19:R3$$$V2.0; N-terminus and C-terminus assumed)", "values": [{"measurement": "Cytotoxicity / cell-membrane damage by LDH release", "setting": "SH-SY5Y cells", "value": "no significant cytotoxicity or cell-membrane damaging effects"}, {"measurement": "remaining at 6 h", "setting": "[1]", "value": "~90", "unit": "%"}, {"measurement": "Effect of heating on far-UV CD spectrum (thermal denaturation)", "setting": "[2]", "value": "did not alter its CD spectrum"}, {"measurement": "Expression of caspase-3 in treated cells", "setting": "caspase-3", "value": "remained unchanged"}, {"measurement": "Antimicrobial effect", "setting": "Candida tropicalis", "value": "does not exhibit an antimicrobial effect"}, {"measurement": "Increase of LC3B-II/LC3B-I ratio compared to control", "setting": "LC3B; western blot band intensity", "value": "about 3 fold"}, {"measurement": "Increase of expression of LC3B-II isoform vs control", "setting": "LC3B; western blot densitometry relative to GAPDH, normalized to vehicle control, mean", "value": 2.8, "unit": "fold"}, {"measurement": "Expression of LC3B-I isoform vs control", "setting": "LC3B; western blot densitometry relative to GAPDH, normalized to vehicle control", "value": "did not alter the expression"}, {"measurement": "Antimicrobial effect", "setting": "Escherichia coli", "value": "does not exhibit an antimicrobial effect"}]}
